According to patent US12371454B2, “Cyclic peptide compound having Kras inhibitory action” (priority 2019, dated 2025):
Positions of bridges follow the written chain, without caps; N, C: chain ends. Non-standard residues stand in square brackets, D forms with d. Residues, ends and D or L forms follow the SMILES beside them. *: point of attachment. hPhe(3,5-F2-4-CF3) = N[C@@H](CCc1cc(F)c(C(F)(F)F)c(F)c1)C(=O)O; hPhe(3-Cl-4-CF3) = N[C@@H](CCc1ccc(C(F)(F)F)c(Cl)c1)C(=O)O; NMePhe(4-CF3) = CN[C@@H](Cc1ccc(C(F)(F)F)cc1)C(=O)O; hPhe(4-CF3) = N[C@@H](CCc1ccc(C(F)(F)F)cc1)C(=O)O; Phe(2-CF3) = N[C@@H](Cc1ccccc1C(F)(F)F)C(=O)O; NMeAbu(4,4,4-F3) = CN[C@@H](CC(F)(F)F)C(=O)O; NMePhe(4-Cl) = CN[C@@H](Cc1ccc(Cl)cc1)C(=O)O; NMePhe(4-Me) = CN[C@@H](Cc1ccc(C)cc1)C(=O)O; NMeGly(cPent) = CN[C@H](C(=O)O)C1CCCC1; Phe(3-I) = N[C@@H](Cc1cccc(I)c1)C(=O)O; Pro(4,4-F2) = O=C(O)[C@@H]1CC(F)(F)CN1; NMe4Pal = CN[C@@H](Cc1ccncc1)C(=O)O; NMeY = CN[C@@H](Cc1ccc(O)cc1)C(=O)O; NMeCha = CN[C@@H](CC1CCCCC1)C(=O)O; NMeAoc(2) = CCCCCC[C@H](NC)C(=O)O; NMeChg = CN[C@H](C(=O)O)C1CCCCC1; NMeF = CN[C@@H](Cc1ccccc1)C(=O)O; NMeD = CN[C@@H](CC(=O)O)C(=O)O; NMeL = CN[C@@H](CC(C)C)C(=O)O; Ahp(2) = CCCCC[C@H](N)C(=O)O; NMeV = CN[C@H](C(=O)O)C(C)C; d(β3hA) = C[C@@H](N)CC(=O)O; Morpholide = C1CN(*)CCO1; NMeA = CN[C@@H](C)C(=O)O; NMeAib = CNC(C)(C)C(=O)O; Nle = CCCC[C@H](N)C(=O)O; Piperidide = C1CCN(*)CC1; Pyrrolidide = C1CCN(*)C1; dNMeA = CN[C@H](C)C(=O)O; Ac5c = NC1(C(=O)O)CCCC1; Aze = O=C(O)[C@@H]1CCN1; Sar = CNCC(=O)O

Target: T1, Kras and SOS1 (biotin-tagged human Kras loaded with GDP, His-tagged human SOS1) (Homo sapiens, UniProt P01116, G12D)
T1 construct: made in house; host or cells: E. coli (stated for Kras only)
T1 sequence (P01116 1-188 isoform P01116-2 G12D): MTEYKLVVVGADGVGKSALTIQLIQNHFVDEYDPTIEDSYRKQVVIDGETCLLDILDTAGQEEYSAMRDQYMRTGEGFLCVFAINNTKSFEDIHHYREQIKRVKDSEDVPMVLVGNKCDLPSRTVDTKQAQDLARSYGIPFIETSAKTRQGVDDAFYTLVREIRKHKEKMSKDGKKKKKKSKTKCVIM
Assay: Protein-protein interaction inhibition between Kras and SOS1 (KrasGl2D-SOS PPI) using AlphaScreen
Type: binding
Details: AlphaScreen; biotin-tagged human Kras loaded with GDP, His-tagged human SOS1; read-out: KRAS G12D-SOS PPI IC50
Summary of the method: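 Energy transfer from nickel-chelate donor beads bound to His-SOS1 to streptavidin acceptor beads bound to biotin-Kras, expressed in E. coli and loaded with GDP after purification, was monitored. Donors were excited at 680 nm; singlet oxygen reaching acceptors gave emission read at 520-620 nm.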

Structure (SMILES) | IC50 [nM]
CC[C@H](C)[C@@H]1NC(=O)[C@H](CC(C)C)N(C)C(=O)C[C@@H](C(=O)N2CCCCC2)N(C)C(=O)[C@H](C2CCCCC2)N(C)C(=O)C2(CCCC2)NC(=O)[C@H](Cc2ccncc2)N(C)C(=O)[C@H](CCc2ccc(C(F)(F)F)c(Cl)c2)NC(=O)CN(C)C(=O)[C@H](CC2CCCCC2)N(C)C(=O)[C@@H]2CCN2C(=O)[C@H](C)N(C)C1=O [Compound 656] ([NMeL]I[NMeA][Aze][NMeCha][Sar][hPhe(3-Cl-4-CF3)][NMe4Pal][Ac5c][NMeChg][NMeD]-Piperidide; lactam N-11) | 17
CC[C@H](C)[C@@H]1NC(=O)[C@H](C)N(C)C(=O)C[C@@H](C)NC(=O)[C@H](CC(C)C)N(C)C(=O)C2(CCCC2)NC(=O)[C@@H]2CCCN2C(=O)[C@H](CCc2ccc(C(F)(F)F)cc2)NC(=O)CN(C)C(=O)[C@H](CC2CCCCC2)N(C)C(=O)CN(C)C(=O)CN(C)C1=O [Compound 1090] (cyclo([Ac5c][NMeL][d(β3hA)][NMeA]I[Sar][Sar][NMeCha][Sar][hPhe(4-CF3)]P)) | 88
CC[C@H](C)[C@@H]1NC(=O)[C@H](CC(C)C)N(C)C(=O)C[C@@H](C(=O)N(C)C)N(C)C(=O)[C@H](C2CCCC2)N(C)C(=O)C2(CCCC2)NC(=O)[C@H](Cc2ccc(C)cc2)N(C)C(=O)[C@H](CCc2ccc(C(F)(F)F)c(Cl)c2)NC(=O)CN(C)C(=O)[C@H](CC2CCCCC2)N(C)C(=O)[C@@H]2CCN2C(=O)[C@H](C)N(C)C1=O [Compound 908] ([NMeL]I[NMeA][Aze][NMeCha][Sar][hPhe(3-Cl-4-CF3)][NMePhe(4-Me)][Ac5c][NMeGly(cPent)][NMeD]-NMe2; lactam N-11) | 39
CC[C@H](C)[C@@H]1NC(=O)[C@H](C)N(C)C(=O)C[C@@H](C(=O)N2CCOCC2)N(C)C(=O)[C@H](C(C)C)N(C)C(=O)C2(CCCC2)NC(=O)[C@@H]2CCCN2C(=O)[C@H](CCc2ccc(C(F)(F)F)c(Cl)c2)NC(=O)[C@@H](C)N(C)C(=O)[C@H](CC2CCCCC2)N(C)C(=O)[C@@H]2CCCN2C(=O)CN(C)C1=O [Compound 1788] ([NMeA]I[Sar]P[NMeCha][dNMeA][hPhe(3-Cl-4-CF3)]P[Ac5c][NMeV][NMeD]-Morpholide; lactam N-11) | 4.3
CC[C@H](C)[C@@H]1NC(=O)[C@H](C)N(C)C(=O)C[C@@H](C(=O)N2CCCC2)NC(=O)[C@H](CC(C)C)N(C)C(=O)[C@H](Cc2ccccc2)N(C)C(=O)[C@H](CC(C)C)NC(=O)[C@H](CCc2ccc(C(F)(F)F)cc2)NC(=O)CN(C)C(=O)[C@H](Cc2ccc(Cl)cc2)N(C)C(=O)CN(C)C(=O)CNC1=O [Compound 808] ([NMeA]IG[Sar][NMePhe(4-Cl)][Sar][hPhe(4-CF3)]L[NMeF][NMeL]D-Pyrrolidide; lactam N-11) | 99
CC[C@H](C)[C@@H]1NC(=O)[C@H](CC(F)(F)F)N(C)C(=O)C[C@@H](C(=O)N2CCCC2)N(C)C(=O)[C@H](C2CCCCC2)N(C)C(=O)C2(CCCC2)NC(=O)[C@@H]2CC(F)(F)CN2C(=O)[C@H](CCc2cc(F)c(C(F)(F)F)c(F)c2)NC(=O)CN(C)C(=O)[C@H](Cc2ccc(C(F)(F)F)cc2)N(C)C(=O)CN(C)C(=O)CN(C)C1=O [Compound 1303] ([NMeAbu(4,4,4-F3)]I[Sar][Sar][NMePhe(4-CF3)][Sar][hPhe(3,5-F2-4-CF3)][Pro(4,4-F2)][Ac5c][NMeChg][NMeD]-Pyrrolidide; lactam N-11) | 0.72
CCCCC[C@@H]1NC(=O)[C@H](CC(C)C)N(C)C(=O)C[C@@H](C(=O)N2CCCCC2)N(C)C(=O)[C@H](C2CCCCC2)N(C)C(=O)C2(CCCC2)NC(=O)[C@@H]2CCCN2C(=O)[C@H](CCc2ccc(C(F)(F)F)c(Cl)c2)NC(=O)CN(C)C(=O)[C@H](CC2CCCCC2)N(C)C(=O)CN(C)C(=O)CN(C)C1=O [Compound 1692] ([NMeL][Ahp(2)][Sar][Sar][NMeCha][Sar][hPhe(3-Cl-4-CF3)]P[Ac5c][NMeChg][NMeD]-Piperidide; lactam N-11) | 3.5
CC[C@H](C)[C@@H]1NC(=O)[C@H](CC(C)C)N(C)C(=O)C[C@@H](C(=O)N2CCCCC2)N(C)C(=O)[C@H](CC(C)C)NC(=O)C(C)(C)N(C)C(=O)[C@H](Cc2ccccc2C(F)(F)F)NC(=O)[C@H](Cc2cccc(I)c2)NC(=O)CN(C)C(=O)[C@H](Cc2ccc(C)cc2)N(C)C(=O)[C@@H]2CCN2C(=O)CN(C)C1=O [Compound 791] ([NMeL]I[Sar][Aze][NMePhe(4-Me)][Sar][Phe(3-I)][Phe(2-CF3)][NMeAib]L[NMeD]-Piperidide; lactam N-11) | 320
CCCCCC[C@H]1C(=O)N[C@@H]([C@@H](C)CC)C(=O)N(C)CC(=O)N2CC[C@H]2C(=O)N(C)[C@@H](Cc2ccc(OC)cc2)C(=O)N(C)CC(=O)N[C@@H](Cc2cccc(I)c2)C(=O)N[C@@H](CCCC)C(=O)N(C)C(C)(C)C(=O)N[C@@H](CC(C)C)C(=O)N(C)[C@H](C(=O)N2CCCCC2)CC(=O)N1C [Compound 1417] ([NMeAoc(2)]I[Sar][Aze][NMeY](Me)[Sar][Phe(3-I)][Nle][NMeAib]L[NMeD]-Piperidide; lactam N-11) | 29
